Measurements taken from patent publication US8304238B2, “Cell culture medium and immobilized preparation of cell adhesion protein or peptide” (Nat'l Institute for Environmental Studies, priority 2003, dated 2012).
“Also recorded” adds a separate entry of the source. Where no end group is shown, it is not given here.

Assays:
[1] = test system: alveolar type II epithelial cells (T2 cells); assay: Binding strength (affinity) of immobilized LN peptides to T2 cells relative to immobilized FIB-1 (mixed immobilization, free FIB-1 competition); type: cell-based; set-up: key to Binding strength to T2 cells, Comprehensive evaluation: AA: extremely strongly binding/adhering; A: strongly binding/adhering; B: intermediately binding/adhering (as the same degree as FIB-1 peptide); C: more weakly binding/adhering than FIB-1 peptide; conditions: for Binding strength to T2 cells, Comprehensive evaluation: classification relative to FIB-1 peptide; for Binding strength to T2 cells, Ratio to FIB-1: inverse of mixing ratio at transitional midpoint, MMAC-coated well; for Binding strength to T2 cells, Ratio to FIB-1 / Mixing ratio at the transitional midpoint: FIB-1 0.25 mg/ml; for Mixing ratio at the transitional midpoint: peptide:FIB-1 co-immobilized, loss of inhibition by free FIB-1
Protocol: Therefore, the amount of FIB-1 peptide was set at 0.25 mg/ml, and AG73 peptide was mixed therewith, while changing its concentration ratio, from 1/1.250 of FIB-1 in an amount which is 0.20 μg/ml, to ½ of FIB-1 in an amount which is 0.125 mg/ml, and the mixture was immobilized on a well wherein a hydrophobic binding-adsorptive polymer MMAC was coated. The amount of cell adhesion in the case where T2 cells were cultured under a serum-free condition for 1 day on the immobilized peptides is shown in FIG. 9, in comparison with the case where the culture was conducted on the immobilized FIB-1, which was set at 100%.
However, in a case that the ratio of FIB-1:AG73 increased to 1:0.02, because T2 cells already transited to be adherent through the immobilized AG73 peptide, free FIB-1 peptide could no longer inhibit the cell adhesion. […] Likewise, with regard to A3G72 and A4G82 peptides, because the mixing ratio at the transitional midpoint=0.1, their binding strength to T2 cells is 10 times as much as that of FIB-1.
The method used in FIGS. 8 and 9 is extremely effective as a convenient method by which a relative order can be measured concerning to the binding strength (affinity) of cell adhesion peptides and the strength of cell adhesion can be considered quantitatively.
In Table 1, the classification is shown based on the results of the affinity (bonding/adhesion strength) between FIB-1 peptide containing RGD amino acid sequence of FN molecule, a binding site to integrin, and T2 cells: laminin α-chain G-domain peptides are classified into class AA, extremely strong binding/adhesion; class A, strong adhesion; class B, adhesion as the same degree as FIB-1; and class C, binding weaker than the described above.

[2] = test system: alveolar type II epithelial cells (T2 cells); assay: Inhibition by free cell adhesion peptides of T2 cell adhesion to coated cell adhesion proteins FN, Col I, LN, VN; type: cell-based; conditions: for Inhibition of adhesion of T2 cells to FN, Col I, LN and VN by free peptide: free peptide 0.25 mg/ml, serum-free, 1 day
Protocol: Commercially available FN, LN and VN, usually used as cell adhesion proteins at cell culture, were coated to wells at the concentrations of 5 μg/ml, 10 μg/ml and 10 μg/ml, respectively. In case of Col I (collagen type I), Col I at the concentration of 100 μg/ml, dissolved in 1 mM HCl, was poured into a well, left stand still for a while, and then the solution was removed and air-drying was conducted, and rinsed with the medium, before use. Next, 6×10^5 cells/ml of alveolar type II epithelial cells (T2 cells) suspended in the serum-free DMEM medium was seeded by 100 μl each on a 96-well to which the extracellular matrix was coated, and cultured in a CO2 incubator at 37° C. for 1 day. After the culture was finished, the cells were fixed with 100 μl of methanol for 5 minutes, and stained for 30 minutes with 50 μl of 0.4% crystal violet. Excessive staining was washed with water, then the number of cells adhered to FN, Col I, LN and VN, which had been coated to the wells, was counted based on the absorbance of cytoplasm (A595).
On the other hand, among amino acid sequences of various LN molecules, the sequences that induce cell adhesion are known to be present. […] Then, the number of cells was counted in accordance with the method described above.

[3] = test system: alveolar type II epithelial cells (T2 cells); assay: Inhibition of T2 cell adhesion by free peptide different from the immobilized peptide substrate; type: cell-based; conditions: for Inhibition by free peptide of T2 cell adhesion to immobilized AG73: AG73 (etc.) immobilized; for Inhibition by free peptide of T2 cell adhesion to immobilized FIB-1: FIB-1 immobilized
Protocol: Results obtained by adding the free peptides different from the immobilized peptides when T2 cells were cultured on the immobilized peptide prepared according to the method in Example 7, were shown in FIG. 8.
When adding the free peptides that were the same as the immobilized peptides in the culture medium, the both (free and immobilized) peptides compete for syndecan of T2 cells and as a result, the cell adhesion is inhibited (see Example 7). So far, four types of syndecans are genetically known. Whether these syndecans are commonly owned or accommodated by each peptide, overlapping only by some degrees, otherwise mutually exclusive, was examined herein.

[4] = test system: alveolar type II epithelial cells (T2 cells); assay: Time course of cell adhesion/spreading of T2 cells on immobilized cell adhesion peptide substrates; type: cell-based
Protocol: Culture was conducted by using the cell adhesion peptides immobilized on a well and T2 cells, for 1-24 hours according to the method in Example 8.
As cell adhesion peptides, AG73 was used in B, E and M, FIB-1 was used in C, L and O, A3G72 was used in F, A4G82 was used in G and N, A5G71 was used in H, A5G77 was used in I, hA3G75 was used in J, and hA3G83 was used in K; FN was used as a standard substance in A and D.

[5] = test system: alveolar type II epithelial cells (T2 cells); assay: Static and forced stretching culture of T2 cells on MMAC-coated silicone wells with immobilized proteins or peptides; type: cell-based; conditions: for Reorientation of T2 cells under forced stretching: 1 day static, 1 day stretching (1dC-1dS), 25 percent, 15 times per minute; for Change of type II epithelial cells into a shape like type I epithelial cells: 3 days static, 3 days stretching (3dC-3dS)
Protocol: A silicone well coated with MMAC was obtained by pouring 0.5 ml of ethanol solution of 50 μg/ml of MMAC (ISP, International Specialty Products, USA) into a silicone well with a groove of 20 mm×20 mm×10 mm, absorbing excess solution, and conducting air-drying.
Into the silicone wells coated by the method described in Example 1, 10 μg/ml of cell adhesion protein solution of fibronectin (FN), laminin-1 (LN), dissolved in 0.1 M triethanolamine buffer solution of pH 8.8, or 0.25 mg/ml of cell adhesion peptide solution of FIB-1, AG73 was poured respectively, and the reaction was conducted for at least several hours at 37° C. to bind and immobilize these proteins or peptides having cell adhesion activity (see Example 6 described later for particulars of immobilization). Subsequently, alveolar type II epithelial cell (T2 cells) suspension was poured, 5×10^4/cm^2 per unit area, and the culture was started in a CO2 culture apparatus.
T2 cells, 2×10^5/cm^2 per unit area, were seeded on the silicone well wherein the cell adhesion proteins or peptides were immobilized, which had been prepared in an almost same manner as that of Example 2, and static culture was conducted for 1 day. After confirming that the seeded cells confluently spread all over the culture face, horizontal cell stretching was forcibly started at the stretching degree of twenty five percents and at the frequency of 15 times per minute, by using cell culture stretching apparatus (Scholar Tec), and the culture was continued one more day. After the culture was finished, photographs of cell adhesion state were taken with a phase contrast microscope (FIG. 2, top 4 rows).
T2 cells, 5×10^4/cm^2 per unit area, were seeded on the silicone well wherein the cell adhesion proteins or peptides were immobilized, which had been prepared in an almost same manner as that of Example 2, and static culture was conducted for 3 days. T2 cells grew in a manner similar to that shown in FIG. 1, 3d (results are not shown because they are overlapping). Then, the cells were subjected to the same stimuli of forced stretching as in Example 1, and the culture was continued one more day. After the culture was finished, photographs of cell adhesion state were taken with a phase contrast microscope (FIG. 2, middle 4 rows) (FN, 3dC-1dS, LN, 3dC-1dS, FIB-1, 3dC-1dS, and AG-73, 3dC-1dS).
Forced stretching culture was conducted for 3 days in an almost same manner as stretching culture of Example 4. After the culture was finished, photographs of cell adhesion state were taken with a phase contrast microscope (FIG. 2, bottom 4 rows) (FN, 3dC-3dS, LN, 3dC-3dS, FIB-1, 3dC-3dS, and AG-73, 3dC-3dS).

[6] = target: syndecan present on the cell surface of T2 cells (alveolar type II epithelial cells); assay: T2 cell adhesion to FIB-1 and the peptide co-immobilized on MMAC-coated wells, inhibition by free FIB-1 (FIG. 9)
[7] = target: syndecan present on the cell surface of T2 cells (alveolar type II epithelial cells); assay: T2 cell adhesion to immobilized peptides, competitive inhibition by free peptides (FIGS. 8 and 9)

Molecule	Binding strength to T2 cells, Comprehensive evaluation [1]	Binding strength to T2 cells, Ratio to FIB-1 [1]	Mixing ratio at the transitional midpoint [1]	Inhibition of adhesion of T2 cells to FN, Col I, LN and VN by free peptide [2]	Inhibition by free peptide of T2 cell adhesion to immobilized AG73 [3]	Inhibition by free peptide of T2 cell adhesion to immobilized FIB-1 [3]	Cell adhesion/spreading on immobilized peptide ([4]; 6-hour culture)	mixing ratio at the transitional midpoint (peptide to FIB-1) [6]	Binding strength to T2 cells, Ratio to FIB-1 (fold (ratio to FIB-1)) [7]	further results
RKRLQVQLSIRT	AA	100	0.01	inhibited adhesion of T2 cells	inhibited the cell adhesion	inhibited; also recorded: could inhibit	the cells were spreading	–	–	Inhibition of adhesion of T2 cells to cell adhesion proteins by free peptide ([2]; free peptide 0.12 mg/ml): exhibited the inhibitory activity; Cell adhesion/spreading on immobilized peptide ([4]; 24-hour culture): almost all cells had finished spreading; Reorientation of T2 cells under forced stretching [5]: spread in an elongated shape to a direction perpendicular to the direction of forced stretching; Change of type II epithelial cells into a shape like type I epithelial cells [5]: changed into a shape like flat type I epithelial cells
fibronectin [FN]	–	–	–	–	–	–	–	–	–	Reorientation of T2 cells under forced stretching [5]: not very obvious; Change of type II epithelial cells into a shape like type I epithelial cells [5]: less observed
TLFLAHGRLVFM	A	10	0.1	inhibited adhesion of T2 cells	inhibited the cell adhesion	could inhibit	the cells were spreading	–	–	Cell adhesion/spreading on immobilized peptide ([4]; 24-hour culture): almost all cells had finished spreading
GNSTISIRAPVY	B	1-2	about 1	inhibited adhesion of T2 cells	inhibited the cell adhesion	could inhibit	delay in spreading but sufficient cell adhesion	–	–	–
KNSFMALYLSKG	B	2	about 1	inhibited adhesion of T2 cells	inhibited the cell adhesion	could inhibit	delay in spreading but sufficient cell adhesion	–	–	–
KPRLQFSLDIQT	A	10	0.1	inhibited adhesion of T2 cells	inhibited the cell adhesion	–	the cells were spreading	–	–	–
laminin-1 [LN]	–	–	–	–	–	–	–	–	–	Reorientation of T2 cells under forced stretching [5]: not very obvious; Change of type II epithelial cells into a shape like type I epithelial cells [5]: changed into a shape like flat type I epithelial cells
LVLFLNHGHFVA [A5G77 (Leu-Val-Leu-Phe-Leu-Asn-His-Gly-His-Phe-Val-Ala)]	–	–	–	–	–	–	–	1	–	–
VKTEYIKRKAFM [AG81.2 (Val-Lys-Thr-Glu-Tyr-Ile-Lys-Arg-Lys-Ala-Phe-Met)]	–	–	–	–	–	–	–	–	< 1	–
TLFLAHGRLVFM [A4G82 (Thr-Leu-Phe-Leu-Ala-His-Gly-Arg-Leu-Val-Phe-Met)]	–	–	–	–	–	–	–	0.1	10	–
KNSFMALYLSKG [hA3G75 (Lys-Asn-Ser-Phe-Met-Ala-Leu-Tyr-Leu-Ser-Lys-Gly)]	–	–	–	–	–	–	–	1	2	–
GNSTISIRAPVY [hA3G83 (Gly-Asn-Ser-Thr-Ile-Ser-Ile-Arg-Ala-Pro-Val-Tyr)]	–	–	–	–	–	–	–	1	–	–
KPRLQFSLDIQT [A3G72 (Lys-Pro-Arg-Leu-Gln-Phe-Ser-Leu-Asp-Ile-Gln-Thr)]	–	–	–	–	–	–	–	0.1	10	–
